These results are taken from ChEMBL document CHEMBL1139531, “Synthesis and biological evaluation of dihydromotuporamine derivatives in cells containing active polyamine transporters” (J Med Chem, 2005).

The Ki is a measure of affinity in units of concentration, obtained from inhibition or displacement. As a reminder, the IC50 is the concentration needed to halve the response being measured. Lower therefore signals greater potency in that assay.

For assay [1], the system named is CHO-MG. Kind of assay: Relative inhibition of CHO-MG and chinese hamster ovary cell proliferation. It is filed as functional.
The subject of assay [2] is L1210. Kind of assay: Affinity for cellular polyamine transporter system as inhibition [14C]spermidine uptake in L1210 cells. It is filed as functional, cell-based, Mus musculus.
For assay [3], the system named is CHO-MG. Kind of assay: Inhibition of MGBG-resistant CHO-MG cell proliferation, no polyamine transporter activity. It is filed as functional, cell-based. Conditions: Cricetulus griseus.
For another assay, the system named is CHO. The assay is described as follows: Inhibition of chinese hamster ovary cell proliferation, high polyamine transporter activity. It is filed as functional, cell-based. To be noted: Cricetulus griseus.
Assay [4] has as its system L1210. Kind of assay: Inhibition of murine L1210 leukemia cell proliferation, high polyamine transporter activity. It is filed as functional, cell-based. Conditions: Mus musculus.

For the compound `NCCCCNCCCCN1CCCCCCCCCCCCCC1`, in the assay on CHO-MG [1], the Ratio is listed as 1. The affinity in the assay on L1210 [2] corresponds to a Ki of 6.2 µM. Also, the IC50 is 28.2 µM with CHO-MG [3], 30 µM in the assay on CHO and 18.5 µM in the assay with L1210 [4].

Regarding `NCCCNCCCN1CCCCCCCCCCCCCC1`, the Ratio with CHO-MG [1] is recorded as 1. In the assay on L1210 [2], the affinity, expressed as Ki, was 9.9 µM. The IC50 amounted to 10 µM in the assay with CHO-MG [3], 10.5 µM in the assay on CHO and 3 µM with L1210 [4].

`CCN(CCCCNCCCCN)Cc1c2ccccc2cc2ccccc12.Cl.Cl.Cl`: the Ratio in the assay with CHO-MG [1] amounted to 1. The affinity with L1210 [2], expressed as Ki, was 24.4 µM. Besides, the IC50 in the assay with CHO-MG [3] stood at 21.9 µM; in the assay with CHO it was 22.2 µM; in the assay on L1210 [4] it was 22.2 µM.

As for `Cl.Cl.Cl.NCCCNCCCNCc1c2ccccc2cc2ccccc12`, the Ratio in the assay on CHO-MG [1] is on record as 1.8. For the same compound, the Ki with L1210 [2] turned out to be 33.4 µM. The IC50 was determined as 3.4 µM in the assay on CHO-MG [3], 1.9 µM with CHO and 1.8 µM with L1210 [4].

Take `Cl.Cl.Cl.NCCCCNCCCCNCc1c2ccccc2cc2ccccc12`: the Ratio in the assay on CHO-MG [1] came out at 148. In the assay on CHO, this compound came in with an IC50 of 0.45 µM.
